Type in all cases: functional, cell-based
One assay has as its system MDA-MB-231. Kind of assay: Cytotoxicity against human MDA-MB-231 cells assessed as inhibition of cell growth incubated for 72 hrs by SRB assay. As to conditions: MDA-MB-231, 72 h. On the technique in general: Sulforhodamine B stains cellular protein and so reports cell mass.
The subject of another assay is ASPC1. Put plainly: Cytotoxicity against human ASPC1 cells assessed as inhibition of cell growth incubated for 72 hrs by SRB assay. As to conditions: ASPC1, 72 h.
In a further assay the test system is PANC-1. Kind of assay: Cytotoxicity against human PANC-1 cells assessed as inhibition of cell growth incubated for 72 hrs by SRB assay. As to conditions: PANC-1, 72 h.
The next assay relates to BXPC-3. Put plainly: Cytotoxicity against human BXPC-3 cells assessed as inhibition of cell growth incubated for 72 hrs by SRB assay. The conditions noted are these: BXPC-3, 72 h.

Molecules are shown by their SMILES. Where a name gives a salt, the structure may show the parent alone.

As for `COc1cccc2c1C(=O)c1c(O)c3c(c(O)c1C2=O)C[C@@](O)(C(=O)CO)C[C@@H]3O[C@H]1C[C@H](N)[C@H](O)[C@H](C)O1` [DOXORUBICIN HYDROCHLORIDE], the IC50 with MDA-MB-231 was 0.2 µM; with ASPC1, 0.3 µM; with PANC-1, 0.9 µM.
As for `Nc1ccn([C@@H]2O[C@H](CO)[C@@H](O)C2(F)F)c(=O)n1` [GEMCITABINE], the IC50 with ASPC1 was 7.5 µM; in the assay with BXPC-3 it was 0.04 µM; in the assay on PANC-1, 8.3 µM.
On to `C=C(CCCCCCCC(=O)OC[C@@]1(C)CCC[C@@]2(C)[C@H]1[C@H](OC(=O)c1ccc([N+](=O)[O-])cc1)C=C1C(=O)OC[C@@]12O)C(=O)O`, for which the IC50 was determined as 11.7 µM in the assay on MDA-MB-231, 2.7 µM in the assay on ASPC1 and 4.6 µM in the assay on PANC-1.
The like results for `C[C@]1(COC(=O)CCCCCCC/C=C/C(=O)O)CCC[C@]2(C)[C@H]3COC(=O)C3=C[C@@H](OC(=O)c3ccc([N+](=O)[O-])cc3)[C@@H]12` were, in that order, over 30 µM, over 30 µM and over 30 µM.
Turning to `C=C(CCCCCCCC(=O)OC[C@@]1(C)CCC[C@]2(C)[C@H]3COC(=O)C3=C[C@@H](OC(=O)c3ccc([N+](=O)[O-])cc3)[C@@H]12)C(=O)O`, the IC50 with MDA-MB-231, with ASPC1 and in the assay with PANC-1 was over 30 µM in each case.

The IC50 is the midpoint of a concentration-inhibition curve.

(Values after ChEMBL document CHEMBL5120812, “Cytotoxic Nitrobenzoyl Sesquiterpenoids from an Antarctica Sponge-Derived Aspergillus insulicola” (J Nat Prod, 2022).)
